Common to all, as to assay type: functional
Test [1] deals with Staphylococcus aureus. Put plainly: Antibacterial activity against methicillin-resistant Staphylococcus aureus assessed as reduction in microbial growth incubated for 18 to 24 hrs by serial dilution method. Particulars: time 18-24 hrs.
For test [2], the system named is Staphylococcus aureus. Put plainly: Antibacterial activity against methicillin-sensitive Staphylococcus aureus assessed as reduction in microbial growth incubated for 18 to 24 hrs by serial dilution method. As to conditions: time 18-24 hrs.
Test [3] deals with Staphylococcus aureus. Briefly: Antibacterial activity against Staphylococcus aureus assessed as reduction in microbial growth incubated for 18 to 24 hrs by serial dilution method. As to conditions: time 18-24 hrs.
For test [4], the system named is Staphylococcus aureus. Put plainly: Antibacterial activity against Staphylococcus aureus assessed as inhibition of bacterial growth by microdilution method. A general note: Broth dilution looks for growth in wells or tubes with falling amounts of substance.
Test [5] has as its system Bacillus subtilis. Briefly: Antibacterial activity against Bacillus subtilis assessed as inhibition of bacterial growth by microdilution method.
The subject of test [6] is Staphylococcus epidermidis. Put plainly: Antibacterial activity against Staphylococcus epidermidis assessed as inhibition of bacterial growth by microdilution method.

Results on 31 molecules are retold here after ChEMBL document CHEMBL5634077, “Recent advances in 1,2,3- and 1,2,4-triazole hybrids as antimicrobials and their SAR: A critical review” (2023).

Molecules are shown by their SMILES. ≈ marks a conversion by molar mass, not a printed value.

With `COc1c(N2CCN(C(=O)Cn3cc(CN4C(=O)C(=O)c5cc(C)ccc54)nn3)C(C)C2)c(F)cc2c(=O)c(C(=O)O)cn(C3CC3)c12` (stereo not drawn), the MIC in test [1], in test [2] and in test [3] was 0.03 µg/mL throughout.

For the molecule `COc1c(N2CCN(C(=O)Cn3cc(CN4C(=O)C(=O)c5cc(F)ccc54)nn3)C(C)C2)c(F)cc2c(=O)c(C(=O)O)cn(C3CC3)c12` (stereo not drawn), the minimal inhibitory concentration (MIC) in test [1], in test [2] and in test [3] was 0.03 µg/mL each time.

Turning to `CO/N=C1/C(=O)N(Cc2cn(CC(=O)N3CCN(c4c(F)cc5c(=O)c(C(=O)O)cn(C6CC6)c5c4OC)CC3C)nn2)c2ccc(F)cc21` (stereo not drawn), the MIC in test [1], in test [2] and in test [3] was 0.03 µg/mL each time.

For `CCO/N=C1/C(=O)N(Cc2cn(CC(=O)N3CCN(c4c(F)cc5c(=O)c(C(=O)O)cn(C6CC6)c5c4OC)CC3C)nn2)c2ccc(C)cc21` (stereo not drawn), the MIC in test [1], in test [2] and in test [3] was 0.03 µg/mL throughout.

Take `CCO/N=C1/C(=O)N(Cc2cn(CC(=O)N3CCN(c4c(F)cc5c(=O)c(C(=O)O)cn(C6CC6)c5c4OC)CC3C)nn2)c2ccccc21` (stereo not drawn): the MIC in test [1], in test [2] and in test [3] was 0.03 µg/mL throughout.

As to `COc1c(N2CCN(C(=O)Cn3cc(CN4C(=O)C(=O)c5cc(Cl)cc(Cl)c54)nn3)C(C)C2)c(F)cc2c(=O)c(C(=O)O)cn(C3CC3)c12` (stereo not drawn), the MIC in test [1], in test [2] and in test [3] was 0.03 µg/mL throughout.

For the molecule `Fc1cc(-n2cc(COc3cccc4cccnc34)nn2)ccc1N1CCOCC1`, the figures for the MIC in test [4], in test [5] and in test [6] were 50 µg/mL (≈ 123 µM), 25 µg/mL (≈ 61.7 µM) and 25 µg/mL (≈ 61.7 µM), respectively.

With `COc1c(N2CCN(C(=O)Cn3cc(CN4C(=O)C(=O)c5ccccc54)nn3)C(C)C2)c(F)cc2c(=O)c(C(=O)O)cn(C3CC3)c12` (stereo not drawn), the MIC in test [1], in test [2] and in test [3] was 0.03 µg/mL throughout.

In the case of `CCO/N=C1/C(=O)N(Cc2cn(CC(=O)N3CCN(c4c(F)cc5c(=O)c(C(=O)O)cn(C6CC6)c5c4OC)CC3C)nn2)c2ccc(F)cc21` (stereo not drawn), the minimum inhibitory concentration (MIC) in test [1], in test [2] and in test [3] was 0.03 µg/mL each time.

Turning to `Fc1cc(-n2cc(COc3cc(Cl)cc(Cl)c3)nn2)ccc1N1CCOCC1`, the MIC (in general, the lowest concentration found to suppress growth) is 6.25 µg/mL (≈ 14.8 µM) in test [4], 12.5 µg/mL (≈ 29.5 µM) in test [5] and 12.5 µg/mL (≈ 29.5 µM) in test [6].

For `O=C(OCc1cn(-c2ccc(N3CCOCC3)c(F)c2)nn1)c1cc2ccccc2[nH]1`, the results for the MIC in test [4], in test [5] and in test [6] were 25 µg/mL (≈ 59.3 µM), 25 µg/mL (≈ 59.3 µM) and 3.12 µg/mL (≈ 7.4 µM), respectively.

For `Fc1ccccc1OCc1cn(-c2ccc(N3CCOCC3)c(F)c2)nn1`, the MIC stood at 12.5 µg/mL (≈ 33.6 µM) in test [4], 3.12 µg/mL (≈ 8.38 µM) in test [5] and 6.25 µg/mL (≈ 16.8 µM) in test [6].

Regarding `Fc1cc(-n2cc(CSc3nc4ccccc4o3)nn2)ccc1N1CCOCC1`, the minimum inhibitory concentration (MIC) is 25 µg/mL (≈ 60.8 µM) in test [4], 12.5 µg/mL (≈ 30.4 µM) in test [5] and 6.25 µg/mL (≈ 15.2 µM) in test [6].

For `Fc1ccc(OCc2cn(-c3ccc(N4CCOCC4)c(F)c3)nn2)cc1`, the MIC in test [4] amounted to 3.12 µg/mL (≈ 8.38 µM); in test [5] it was 1.56 µg/mL (≈ 4.19 µM); in test [6], 3.12 µg/mL (≈ 8.38 µM).

Turning to `CO/N=C1/C(=O)N(Cc2cn(CC(=O)N3CCN(c4c(F)cc5c(=O)c(C(=O)O)cn(C6CC6)c5c4OC)CC3C)nn2)c2c(F)cccc21` (stereo not drawn), the MIC in test [1], in test [2] and in test [3] was 0.03 µg/mL each time.

Take `COc1c(N2CCN(C(=O)Cn3cc(CN4C(=O)/C(=N/O)c5cc(C)ccc54)nn3)C(C)C2)c(F)cc2c(=O)c(C(=O)O)cn(C3CC3)c12` (stereo not drawn): the minimum inhibitory concentration (MIC) in test [1], in test [2] and in test [3] was 0.03 µg/mL each time.

With `O=C1CS(=O)(=O)c2ccccc2N1Cc1cn(-c2ccc(N3CCOCC3)c(F)c2)nn1`, the minimal inhibitory concentration (MIC) in test [4] came out at 12.5 µg/mL (≈ 27.3 µM); in test [5] it was 3.12 µg/mL (≈ 6.82 µM); in test [6], 50 µg/mL (≈ 109 µM).

On to `O=C1COc2cc(Br)ccc2N1Cc1cn(-c2ccc(N3CCOCC3)c(F)c2)nn1`, for which the MIC in test [4], in test [5] and in test [6] was 25 µg/mL (≈ 51.2 µM) each time.

As to `COc1c(N2CCN(C(=O)Cn3cc(CN4C(=O)/C(=N/O)c5cc(F)ccc54)nn3)C(C)C2)c(F)cc2c(=O)c(C(=O)O)cn(C3CC3)c12` (stereo not drawn), the MIC in test [1], in test [2] and in test [3] was 0.03 µg/mL in each case.

In the case of `CO/N=C1/C(=O)N(Cc2cn(CC(=O)N3CCN(c4c(F)cc5c(=O)c(C(=O)O)cn(C6CC6)c5c4OC)CC3C)nn2)c2ccccc21` (stereo not drawn), the MIC in test [1], in test [2] and in test [3] was 0.03 µg/mL in each case.

Regarding `COc1c(N2CCN(C(=O)Cn3cc(CN4C(=O)/C(=N/O)c5ccccc54)nn3)C(C)C2)c(F)cc2c(=O)c(C(=O)O)cn(C3CC3)c12` (stereo not drawn), the MIC in test [1], in test [2] and in test [3] was 0.03 µg/mL each time.

Regarding `Cc1cc(=O)oc2cc(OCc3cn(-c4ccc(N5CCOCC5)c(F)c4)nn3)ccc12`, the MIC in test [4] worked out at 25 µg/mL (≈ 57.3 µM); in test [5] it was 50 µg/mL (≈ 115 µM); in test [6], 25 µg/mL (≈ 57.3 µM).

On to `Fc1cc(-n2cc(COc3cccc(Cl)c3)nn2)ccc1N1CCOCC1`, for which the values for the MIC in test [4], in test [5] and in test [6] were 25 µg/mL (≈ 64.3 µM), 25 µg/mL (≈ 64.3 µM) and 50 µg/mL (≈ 129 µM), respectively.

In the case of `Fc1cc(-n2cc(CSc3nc4cc(Br)ccc4s3)nn2)ccc1N1CCOCC1`, the MIC was determined as 50 µg/mL (≈ 98.7 µM) in test [4], 25 µg/mL (≈ 49.4 µM) in test [5] and 50 µg/mL (≈ 98.7 µM) in test [6].

As for `Fc1cc(-n2cc(CN3c4ccccc4Sc4ccccc43)nn2)ccc1N1CCOCC1`, the MIC in test [4] is 12.5 µg/mL (≈ 27.2 µM); in test [5] it was 6.25 µg/mL (≈ 13.6 µM); in test [6], 25 µg/mL (≈ 54.4 µM).

Turning to `COc1c(N2CCN(C(=O)Cn3cc(CN4C(=O)C(=O)c5cccc(F)c54)nn3)C(C)C2)c(F)cc2c(=O)c(C(=O)O)cn(C3CC3)c12` (stereo not drawn), the minimal inhibitory concentration (MIC) in test [1], in test [2] and in test [3] was 0.03 µg/mL in each case.

Regarding `O=c1cc(OCc2cn(-c3ccc(N4CCOCC4)c(F)c3)nn2)c2ccccc2o1`, the MIC in test [4] is 50 µg/mL (≈ 118 µM); in test [5], 25 µg/mL (≈ 59.2 µM); in test [6] it was 25 µg/mL (≈ 59.2 µM).

Take `O=C1CSc2ccccc2N1Cc1cn(-c2ccc(N3CCOCC3)c(F)c2)nn1`: the MIC in test [4] amounted to 1.56 µg/mL (≈ 3.67 µM); in test [5] it was 6.25 µg/mL (≈ 14.7 µM); in test [6], 25 µg/mL (≈ 58.8 µM).

With `COc1c(N2CCNC(C)C2)c(F)cc2c(=O)c(C(=O)O)cn(C3CC3)c12` (stereo not drawn) [GATIFLOXACIN], the MIC in test [1], in test [2] and in test [3] was 0.12 µg/mL each time.

Take `CC1(C)S[C@@H]2[C@H](NC(=O)Cc3ccccc3)C(=O)N2[C@H]1C(=O)O` [PENICILLIN G]: the MIC in test [4] was found to be 1.56 µg/mL (≈ 4.67 µM); in test [5] it was 1.56 µg/mL (≈ 4.67 µM); in test [6], 3.12 µg/mL (≈ 9.33 µM).

Regarding `CN[C@@H]1[C@H](O[C@H]2[C@H](O[C@H]3[C@H](O)[C@@H](O)[C@H](N=C(N)N)[C@@H](O)[C@@H]3N=C(N)N)O[C@@H](C)[C@]2(O)C=O)O[C@@H](CO)[C@H](O)[C@H]1O` [STREPTOMYCIN], the MIC in test [4] was determined as 6.25 µg/mL (≈ 10.7 µM); in test [5] it was 6.25 µg/mL (≈ 10.7 µM); in test [6], 3.12 µg/mL (≈ 5.36 µM).
